In ChEMBL document CHEMBL5465560, “Selectivity Literature for EUbOPEN Chemogenomic Library” (2024):

How the values were obtained:
[1] = molecular target: T1, Inhibitor of nuclear factor kappa-B kinase subunit alpha (Homo sapiens) (UniProt O15111); assay: Selectivity interaction (Millipore kinase profiler) EUB0000124b CHUK; settings: at 10 µM
T1 sequence (whole entry): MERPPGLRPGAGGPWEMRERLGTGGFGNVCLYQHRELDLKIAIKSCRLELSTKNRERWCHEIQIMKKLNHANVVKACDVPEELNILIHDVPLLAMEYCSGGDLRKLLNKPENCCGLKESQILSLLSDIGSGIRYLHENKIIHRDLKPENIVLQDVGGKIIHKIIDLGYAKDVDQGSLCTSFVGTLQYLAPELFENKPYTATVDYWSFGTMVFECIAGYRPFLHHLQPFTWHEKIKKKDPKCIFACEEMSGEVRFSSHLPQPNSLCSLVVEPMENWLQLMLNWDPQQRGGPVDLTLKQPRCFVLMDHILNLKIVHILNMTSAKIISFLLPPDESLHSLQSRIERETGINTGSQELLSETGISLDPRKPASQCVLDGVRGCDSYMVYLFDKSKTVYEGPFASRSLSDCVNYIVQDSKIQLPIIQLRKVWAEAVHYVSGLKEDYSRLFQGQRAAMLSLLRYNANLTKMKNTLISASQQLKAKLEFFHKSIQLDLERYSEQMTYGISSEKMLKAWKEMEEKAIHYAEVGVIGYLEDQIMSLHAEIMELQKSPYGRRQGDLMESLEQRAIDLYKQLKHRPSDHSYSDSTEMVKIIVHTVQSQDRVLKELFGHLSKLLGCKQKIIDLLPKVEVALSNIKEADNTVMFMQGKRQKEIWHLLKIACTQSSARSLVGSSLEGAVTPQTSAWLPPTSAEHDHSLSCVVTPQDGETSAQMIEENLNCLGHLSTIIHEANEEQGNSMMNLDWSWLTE

[2] = molecular target: T2, Serine/threonine-protein kinase Nek10 (Homo sapiens) (UniProt Q6ZWH5); assay: Selectivity interaction (KinomeScan (DiscoverX)) EUB0000229b NEK10; settings: at 10 µM
T2 sequence (whole entry): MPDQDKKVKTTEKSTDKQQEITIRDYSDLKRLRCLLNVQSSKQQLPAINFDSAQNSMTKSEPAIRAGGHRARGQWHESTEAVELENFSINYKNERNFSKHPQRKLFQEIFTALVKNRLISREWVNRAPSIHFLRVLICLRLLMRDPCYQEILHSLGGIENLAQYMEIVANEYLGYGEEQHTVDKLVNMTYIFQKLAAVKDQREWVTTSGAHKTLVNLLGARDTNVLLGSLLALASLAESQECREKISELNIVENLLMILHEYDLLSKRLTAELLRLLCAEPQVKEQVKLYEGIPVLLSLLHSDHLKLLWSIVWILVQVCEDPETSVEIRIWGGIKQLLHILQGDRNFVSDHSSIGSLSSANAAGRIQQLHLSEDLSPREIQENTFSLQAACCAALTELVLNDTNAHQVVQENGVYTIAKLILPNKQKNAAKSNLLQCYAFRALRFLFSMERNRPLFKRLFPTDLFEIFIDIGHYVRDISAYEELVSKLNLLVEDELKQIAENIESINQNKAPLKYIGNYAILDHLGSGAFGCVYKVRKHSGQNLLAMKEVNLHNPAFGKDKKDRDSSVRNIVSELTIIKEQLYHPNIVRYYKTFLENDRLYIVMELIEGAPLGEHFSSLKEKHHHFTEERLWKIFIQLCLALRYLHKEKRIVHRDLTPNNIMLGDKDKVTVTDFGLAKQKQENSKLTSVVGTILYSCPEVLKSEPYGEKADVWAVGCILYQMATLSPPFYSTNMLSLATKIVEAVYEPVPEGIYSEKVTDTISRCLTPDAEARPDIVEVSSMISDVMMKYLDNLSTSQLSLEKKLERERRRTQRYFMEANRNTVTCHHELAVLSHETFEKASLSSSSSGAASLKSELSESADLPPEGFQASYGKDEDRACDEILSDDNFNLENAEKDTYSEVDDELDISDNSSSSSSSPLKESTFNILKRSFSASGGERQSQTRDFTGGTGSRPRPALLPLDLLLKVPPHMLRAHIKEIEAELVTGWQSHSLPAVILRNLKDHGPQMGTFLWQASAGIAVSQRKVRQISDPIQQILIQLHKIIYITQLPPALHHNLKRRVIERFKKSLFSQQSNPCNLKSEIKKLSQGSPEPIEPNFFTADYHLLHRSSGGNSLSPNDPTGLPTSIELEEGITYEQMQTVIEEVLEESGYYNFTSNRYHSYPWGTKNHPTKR

[3] = molecular target: Mast/stem cell growth factor receptor Kit (Homo sapiens, UniProt P10721); assay: Selectivity interaction (KinomeScan (DiscoverX)) EUB0000229b KIT; settings: at 10 µM
Sequence of Mast/stem cell growth factor receptor Kit (P10721 whole entry): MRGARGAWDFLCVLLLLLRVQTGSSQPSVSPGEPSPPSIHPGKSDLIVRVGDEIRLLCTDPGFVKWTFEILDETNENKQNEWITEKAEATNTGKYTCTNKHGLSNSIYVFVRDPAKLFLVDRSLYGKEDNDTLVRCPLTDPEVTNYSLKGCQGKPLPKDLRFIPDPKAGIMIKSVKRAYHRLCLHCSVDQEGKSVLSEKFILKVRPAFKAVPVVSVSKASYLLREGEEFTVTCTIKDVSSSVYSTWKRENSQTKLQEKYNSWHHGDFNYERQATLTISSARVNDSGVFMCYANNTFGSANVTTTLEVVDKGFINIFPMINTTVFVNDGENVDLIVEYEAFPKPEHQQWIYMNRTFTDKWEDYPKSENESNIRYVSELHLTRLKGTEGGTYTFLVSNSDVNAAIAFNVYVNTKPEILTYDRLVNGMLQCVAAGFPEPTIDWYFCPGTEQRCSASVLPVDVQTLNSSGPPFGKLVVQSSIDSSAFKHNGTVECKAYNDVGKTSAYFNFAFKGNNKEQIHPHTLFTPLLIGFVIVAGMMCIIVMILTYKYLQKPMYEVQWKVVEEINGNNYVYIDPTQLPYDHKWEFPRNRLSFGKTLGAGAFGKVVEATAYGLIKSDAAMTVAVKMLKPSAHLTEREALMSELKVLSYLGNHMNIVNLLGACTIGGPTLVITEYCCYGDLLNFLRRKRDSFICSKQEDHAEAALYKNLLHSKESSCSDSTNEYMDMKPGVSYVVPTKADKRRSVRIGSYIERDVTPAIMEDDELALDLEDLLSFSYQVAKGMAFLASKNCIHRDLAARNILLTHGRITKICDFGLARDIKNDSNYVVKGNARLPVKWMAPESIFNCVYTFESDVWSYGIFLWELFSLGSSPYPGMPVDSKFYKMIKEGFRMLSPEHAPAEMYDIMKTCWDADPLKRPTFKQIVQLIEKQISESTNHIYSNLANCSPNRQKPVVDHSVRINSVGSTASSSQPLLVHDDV

[4] = molecular target: Calcium/calmodulin-dependent protein kinase type II subunit beta (Homo sapiens) (UniProt Q13554); settings: at 10 µM
Sequence of Calcium/calmodulin-dependent protein kinase type II subunit beta (Homo sapiens) (Q13554 whole entry): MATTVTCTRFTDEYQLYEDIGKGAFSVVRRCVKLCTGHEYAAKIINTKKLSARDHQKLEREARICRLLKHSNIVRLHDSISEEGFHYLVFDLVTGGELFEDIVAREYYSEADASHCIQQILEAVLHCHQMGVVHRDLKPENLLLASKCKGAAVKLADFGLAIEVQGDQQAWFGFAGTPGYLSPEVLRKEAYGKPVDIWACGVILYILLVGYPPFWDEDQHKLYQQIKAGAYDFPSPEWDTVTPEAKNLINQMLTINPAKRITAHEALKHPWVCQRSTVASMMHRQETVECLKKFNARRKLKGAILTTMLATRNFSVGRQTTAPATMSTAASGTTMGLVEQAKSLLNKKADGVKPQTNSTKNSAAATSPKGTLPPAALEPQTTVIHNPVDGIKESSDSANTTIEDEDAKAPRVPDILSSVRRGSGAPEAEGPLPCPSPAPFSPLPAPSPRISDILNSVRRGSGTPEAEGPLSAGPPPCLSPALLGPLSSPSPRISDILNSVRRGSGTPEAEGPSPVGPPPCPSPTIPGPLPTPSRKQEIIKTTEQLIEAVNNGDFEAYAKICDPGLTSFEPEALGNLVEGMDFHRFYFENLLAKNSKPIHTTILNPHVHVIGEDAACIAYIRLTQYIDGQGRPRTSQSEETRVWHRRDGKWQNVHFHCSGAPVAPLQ

[5] = molecular target: Phosphatidylinositol 3-kinase catalytic subunit type 3 (Homo sapiens, UniProt Q8NEB9); assay: Selectivity interaction (ActivX KiNativ screen (kinase selectivity in THP-1 cell lysates)) EUB0000639a PIK3C3; assay type: subcellular; settings: lysate, at 0.04 µM
[6] = molecular target: Tyrosine-protein kinase HCK (Homo sapiens) (UniProt P08631); assay: Selectivity interaction (Kinase panel (Invitrogen)) EUB0000639a HCK; settings: at 200 nM
Sequence of Tyrosine-protein kinase HCK (Homo sapiens) (P08631 2-526 limits assumed): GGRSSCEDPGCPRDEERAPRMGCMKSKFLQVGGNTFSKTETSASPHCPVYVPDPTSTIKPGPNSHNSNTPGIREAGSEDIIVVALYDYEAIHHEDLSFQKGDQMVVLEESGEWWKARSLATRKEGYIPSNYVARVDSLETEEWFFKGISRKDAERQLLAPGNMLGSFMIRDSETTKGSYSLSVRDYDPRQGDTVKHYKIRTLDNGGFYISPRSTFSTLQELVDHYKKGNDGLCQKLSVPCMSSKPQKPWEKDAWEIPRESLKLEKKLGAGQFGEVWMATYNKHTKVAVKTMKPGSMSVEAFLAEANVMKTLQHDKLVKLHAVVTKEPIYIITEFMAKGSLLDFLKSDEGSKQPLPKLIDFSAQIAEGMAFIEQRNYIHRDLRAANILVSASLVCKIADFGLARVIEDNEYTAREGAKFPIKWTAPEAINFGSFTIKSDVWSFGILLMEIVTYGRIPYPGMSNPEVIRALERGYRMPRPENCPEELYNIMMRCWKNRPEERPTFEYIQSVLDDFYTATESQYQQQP

[7] = molecular target: Mitogen-activated protein kinase 7 (Homo sapiens) (UniProt Q13164); assay: Selectivity interaction (KinomeScan (DiscoverX)) EUB0000092b MAPK7; settings: at 10 µM
Sequence of Mitogen-activated protein kinase 7 (Homo sapiens) (Q13164 2-816 limits assumed): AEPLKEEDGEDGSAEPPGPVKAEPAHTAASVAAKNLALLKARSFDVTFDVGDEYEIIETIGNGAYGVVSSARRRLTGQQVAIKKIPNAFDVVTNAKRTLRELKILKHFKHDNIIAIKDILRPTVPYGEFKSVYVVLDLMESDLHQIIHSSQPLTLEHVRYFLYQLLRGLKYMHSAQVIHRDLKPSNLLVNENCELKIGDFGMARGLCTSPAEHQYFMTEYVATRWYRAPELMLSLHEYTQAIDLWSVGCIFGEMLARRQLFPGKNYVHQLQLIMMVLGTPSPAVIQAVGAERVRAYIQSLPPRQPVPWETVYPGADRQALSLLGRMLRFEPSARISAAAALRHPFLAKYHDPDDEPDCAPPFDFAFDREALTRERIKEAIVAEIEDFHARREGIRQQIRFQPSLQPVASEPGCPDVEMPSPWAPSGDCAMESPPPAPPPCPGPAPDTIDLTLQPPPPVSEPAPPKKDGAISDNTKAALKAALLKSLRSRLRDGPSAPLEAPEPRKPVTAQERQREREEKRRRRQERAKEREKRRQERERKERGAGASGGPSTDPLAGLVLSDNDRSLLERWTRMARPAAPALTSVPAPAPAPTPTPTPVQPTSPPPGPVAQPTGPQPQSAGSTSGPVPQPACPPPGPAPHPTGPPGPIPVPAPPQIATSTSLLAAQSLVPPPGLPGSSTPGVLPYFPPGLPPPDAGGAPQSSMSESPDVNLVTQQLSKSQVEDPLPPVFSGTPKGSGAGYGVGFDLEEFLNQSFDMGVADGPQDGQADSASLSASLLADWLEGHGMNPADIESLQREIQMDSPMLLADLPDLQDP

[8] = molecular target: T3, Serine/threonine-protein kinase 17A (Homo sapiens) (UniProt Q9UEE5); assay: Selectivity interaction (KinomeScan (DiscoverX)) EUB0000092b STK17A; settings: at 10 µM
T3 sequence (whole entry): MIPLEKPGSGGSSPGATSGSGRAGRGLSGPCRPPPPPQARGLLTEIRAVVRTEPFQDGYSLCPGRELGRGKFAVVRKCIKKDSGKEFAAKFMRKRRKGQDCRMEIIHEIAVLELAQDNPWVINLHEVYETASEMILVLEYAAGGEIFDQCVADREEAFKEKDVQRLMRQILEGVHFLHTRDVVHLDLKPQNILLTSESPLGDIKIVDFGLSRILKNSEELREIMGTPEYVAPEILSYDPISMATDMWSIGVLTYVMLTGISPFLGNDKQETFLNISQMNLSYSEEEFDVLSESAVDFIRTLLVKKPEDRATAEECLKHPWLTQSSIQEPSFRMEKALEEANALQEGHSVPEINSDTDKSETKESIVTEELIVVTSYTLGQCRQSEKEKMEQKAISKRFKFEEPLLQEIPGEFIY

[9] = molecular target: Tyrosine-protein kinase Srms (Homo sapiens) (UniProt Q9H3Y6); assay: Selectivity interaction (KinomeScan (DiscoverX)) EUB0000045b SRMS
Sequence of Tyrosine-protein kinase Srms (Homo sapiens) (Q9H3Y6 whole entry): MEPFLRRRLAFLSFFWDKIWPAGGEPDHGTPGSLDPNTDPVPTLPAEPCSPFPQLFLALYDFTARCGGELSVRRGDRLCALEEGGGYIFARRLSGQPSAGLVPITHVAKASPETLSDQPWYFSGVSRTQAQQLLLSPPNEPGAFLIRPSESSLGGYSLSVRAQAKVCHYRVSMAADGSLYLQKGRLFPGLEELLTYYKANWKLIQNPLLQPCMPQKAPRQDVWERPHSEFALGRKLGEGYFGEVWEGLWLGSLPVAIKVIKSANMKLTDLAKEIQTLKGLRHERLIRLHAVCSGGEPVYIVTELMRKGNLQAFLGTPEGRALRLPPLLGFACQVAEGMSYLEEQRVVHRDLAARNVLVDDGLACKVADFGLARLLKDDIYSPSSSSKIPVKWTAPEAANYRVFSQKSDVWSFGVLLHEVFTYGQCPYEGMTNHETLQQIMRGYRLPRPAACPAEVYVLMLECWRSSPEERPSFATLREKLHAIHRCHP

[10] = molecular target: Calcium/calmodulin-dependent protein kinase type II subunit alpha (Homo sapiens, UniProt Q9UQM7); assay: Selectivity interaction (Upstate Kinase Profiler service (Millipore, enzymatic assay)) EUB0000056c CAMK2A
Sequence of Calcium/calmodulin-dependent protein kinase type II subunit alpha (Q9UQM7 whole entry): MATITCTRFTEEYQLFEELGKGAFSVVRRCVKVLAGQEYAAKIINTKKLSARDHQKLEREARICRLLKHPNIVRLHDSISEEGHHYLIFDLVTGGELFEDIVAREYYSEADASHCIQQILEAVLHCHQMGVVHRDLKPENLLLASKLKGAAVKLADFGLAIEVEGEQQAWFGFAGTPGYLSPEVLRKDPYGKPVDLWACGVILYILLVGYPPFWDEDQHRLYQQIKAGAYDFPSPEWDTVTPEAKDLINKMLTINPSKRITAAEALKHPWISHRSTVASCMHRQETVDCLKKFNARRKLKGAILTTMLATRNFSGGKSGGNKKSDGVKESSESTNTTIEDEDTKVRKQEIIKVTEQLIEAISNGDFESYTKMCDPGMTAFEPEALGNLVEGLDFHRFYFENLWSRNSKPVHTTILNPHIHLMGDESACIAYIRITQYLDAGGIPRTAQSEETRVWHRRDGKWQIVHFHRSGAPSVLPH

[11] = molecular target: Ribosomal protein S6 kinase alpha-3 (Homo sapiens, UniProt P51812); assay: Selectivity interaction (KinomeScan (DiscoverX)) EUB0000695a RPS6KA3; settings: at 100 nM
Sequence of Ribosomal protein S6 kinase alpha-3 (P51812 whole entry): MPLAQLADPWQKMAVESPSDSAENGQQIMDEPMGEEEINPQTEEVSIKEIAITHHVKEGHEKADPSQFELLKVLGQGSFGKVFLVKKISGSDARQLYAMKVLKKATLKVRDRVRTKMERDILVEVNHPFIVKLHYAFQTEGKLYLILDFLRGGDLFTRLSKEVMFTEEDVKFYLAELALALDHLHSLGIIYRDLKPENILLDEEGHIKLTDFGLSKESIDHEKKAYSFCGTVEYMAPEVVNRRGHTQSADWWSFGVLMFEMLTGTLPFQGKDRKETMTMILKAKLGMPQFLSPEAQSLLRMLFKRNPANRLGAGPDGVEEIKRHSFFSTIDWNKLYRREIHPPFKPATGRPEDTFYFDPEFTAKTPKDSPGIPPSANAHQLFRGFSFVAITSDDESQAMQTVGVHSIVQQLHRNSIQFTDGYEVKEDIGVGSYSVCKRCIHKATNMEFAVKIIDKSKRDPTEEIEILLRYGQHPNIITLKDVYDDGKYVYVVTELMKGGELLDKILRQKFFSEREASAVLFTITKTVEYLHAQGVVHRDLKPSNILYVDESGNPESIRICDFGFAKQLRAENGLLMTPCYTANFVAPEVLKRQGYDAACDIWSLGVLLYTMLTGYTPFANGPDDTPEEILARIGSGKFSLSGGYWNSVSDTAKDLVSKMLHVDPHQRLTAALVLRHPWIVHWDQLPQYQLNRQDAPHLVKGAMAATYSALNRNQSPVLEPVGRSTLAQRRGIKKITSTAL

Work on `CC(=O)Nc1cccc(-n2c(=O)n(C3CC3)c(=O)c3c(Nc4ccc(I)cc4F)n(C)c(=O)c(C)c32)c1` yielded a % of control [1] of 123%.

With `COc1cc(N(C)c2ccnc3ccc(C(F)(F)F)cc23)cc(OC)c1OC` the % binding [2] was 100% and the % binding [3] was 99%.

`CCN(CC)CCCCNc1ncc2cc(-c3cc(OC)cc(OC)c3)c(NC(=O)NC(C)(C)C)nc2n1` gave a % of control [4] of 100%.

`CC[C@@H]1[C@H](F)C(=O)N[C@@H]1COc1nccc2cc(C(N)=O)c(OC)cc12` [ZIMLOVISERTIB] gave a % of inhibition [5] of -7% and a % of inhibition [6] of 4.23%.

In the case of `CCC(=O)N1CCN(c2ccc(-n3c(=O)ccc4cnc5ccc(-c6cnc7ccccc7c6)cc5c43)cc2C(F)(F)F)CC1`, the % of control [7] is reported as 100% and the % of control [8] is reported as 93%.

`C=CC(=O)Nc1cc(-n2c(=O)ccc3cnc4ccc(-c5ccc(NS(C)(=O)=O)cc5)cc4c32)ccc1C` was tested, and the % of control ([9]; at 1 µM) was 100% and the % of control ([9]; at 10 µM) was 100%.

`Cc1ccc(-c2ccc3c(ccc4sc5c(c43)NC[C@@H](C)NC5=O)n2)cn1` showed an IC50 [10] of 70 nM.

With `Cc1cc(F)c(C(=O)Nc2cccc(-c3nncn3C(C)C)n2)cc1-n1cnc(C2CC2)c1` the % of control [11] was 98%.
